Each structure is given as a SMILES string.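 Cells were grown in 96-well plates and exposed to each compound for 48 hours at five concentrations; endpoints were interpolated linearly between bracketing concentrations, or set to the highest concentration if not reached. GI50: concentration for 50% inhibition of growth. TGI: concentration producing complete growth inhibition.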

What all share (assay): NCI anticancer screen, dose series, 48 h
Assay [1] has as its system DMS 114 small cell lung.
Assay [2] relates to DMS 273 small cell lung.
Assay [3] deals with HOP-18 NSCLC.
The test system of assay [4] is KM20L2 colon.
The test system of assay [5] is LXFL 529 NSCLC.
In assay [6] the test system is M19-MEL melanoma.
Assay [7] concerns SNB-78 CNS.
In assay [8] the test system is RXF-631 renal.
Assay [9] has as its system MDA-N.

Consider `COc1ccc(-c2nnc(-c3c(C)n(C)n(-c4ccccc4)c3=O)o2)cc1`, for which the TGI in assay [1], in [2], in assay [3], in assay [4], in assay [5] and in assay [6] was > 100 µM in each case. In addition, the TGI in assay [7] was > 100 µM.

Turning to `O=[P+](O)c1cc2ccccc2c2ccccc12`, the TGI in assay [1], in assay [2], in [3], in assay [4], in [5] and in assay [6] was > 100 µM throughout. The TGI in assay [7] is > 100 µM.

Take `O=C(O)C(C(=O)C(=O)C(C(=O)O)c1ccc(Cl)cc1)c1ccc(Cl)cc1` (centres undefined): the TGI in [1] is 5.64 µM; in assay [2], 12.9 µM; in assay [3], 18.1 µM; in assay [4], 11.3 µM; in assay [5] it was 10.7 µM; in assay [6], 12.5 µM. In assay [7], this compound came in with a TGI of 13.9 µM.

For the compound `Cc1ccc(-c2cc(=O)c3cc(C)c(C)c(C(=O)O)c3o2)cc1`, the TGI in [1], in assay [2], in assay [4], in [5], in [6] and in assay [8] was > 100 µM each time. In assay [7], the TGI was > 100 µM.

Turning to `Clc1cccc(N2CCN(CCN3CCc4c([nH]c5ccccc45)C3c3cccnc3)CC2)c1` (centres undefined), the TGI is > 100 µM in [1]; > 100 µM in [2]; > 100 µM in [3]; 77.8 µM in assay [4]; > 100 µM in assay [5]; > 100 µM in assay [6]. Besides, the TGI in assay [9] and in [7] was > 100 µM throughout.

For `CC(C)(c1ccc(Oc2ccc(C#N)c(C#N)c2)cc1)c1ccc(Oc2ccc(C#N)c(C#N)c2)cc1`, the GI50 in assay [1], in assay [4], in assay [5], in [6] and in [8] was > 100 µM throughout. In addition, the TGI in assay [1], in assay [4], in [5], in assay [6] and in [8] was > 100 µM each time.

For the compound `CN(C(=O)C12C3(C(=O)C(C)(C)C)C4C5(C#N)C3C1(C(=O)C(C)(C)C)C5C42C(=O)C(C)(C)C)C(C)(C)C` (centres undefined), the TGI in assay [1], in assay [2], in assay [4], in assay [5], in [6] and in assay [8] was > 50 µM throughout. For the same compound, the TGI in assay [7] is > 50 µM.

Turning to `COc1ccc(OC)c(NCC#N)c1`, the TGI in [1], in assay [2], in assay [3], in [4], in [6] and in [8] was > 100 µM in each case.

With `COC1=C2C[C@H](O)C(C)C[C@@]2(OC)OC1=O` (some centres undefined), the TGI in [2], in assay [5], in assay [6], in [8] and in [7] was > 100 µM throughout.

Turning to `Nc1nc(NC2C=C(CO)C(O)C2O)c([N+](=O)[O-])c(=O)[nH]1` (centres undefined), the TGI in [1], in assay [2], in [3], in assay [4], in [5] and in assay [6] was > 100 µM throughout. The TGI in assay [7] was > 100 µM.

In the case of `NC(=O)C(=Cc1ccc(CP(=O)(O)O)cc1)C(N)=O`, the TGI in [1], in [2], in assay [3], in assay [4], in assay [5] and in assay [6] was > 100 µM each time. Further, the TGI in assay [7] was > 100 µM.

With `O=c1cc(-c2ccccc2)nc(/C=C(\O)c2ccncc2)n1-c1ccccc1`, the TGI in assay [1], in assay [2], in assay [3], in [4], in [5] and in assay [6] was > 100 µM throughout. For the same compound, in [7], the TGI is > 100 µM.

`Cc1ccc(C(=O)N2CCN(C(=O)c3ccc(C)cc3)c3ccccc32)cc1`: the TGI was 18 µM in [1]; > 35.8 µM in assay [2]; > 100 µM in assay [3]; > 32.6 µM in assay [4]; > 100 µM in [5]; > 100 µM in [6]. Also, the TGI in [9] and in assay [7] was > 100 µM throughout.

`O=c1cc(-c2ccccc2)[nH]c2c(Cl)cccc12`: the TGI was > 100 µM in [1]; > 100 µM in [2]; 36 µM in assay [4]; > 100 µM in [5]; > 100 µM in [6]; > 100 µM in assay [8].
